Laboratory results: US5047397A, “Linear analogs of atrial natriuretic peptides” (California Biotechnology Inc., priority 1988, dated 1991)
*1 amine or outer side, *2 acyl side, *3 side chain or, on linkers, in order; H or OH if unused. Where a SMILES comes first, the peptide text is derived from it. [ ]: non-standard residue; d: D form. The star is where a group is joined. ξ: configuration not given here. Butyryl(4-indol-3-yl) = O=C(CCCc1c[nH]c2ccccc12)*; Acetyl(2-naphthyloxy) = O=C(COc1ccc2ccccc2c1)*; Dibenzylacetyl = O=C(C(Cc1ccccc1)Cc1ccccc1)*; X5 = O=C(C(Cc1cccc2ccccc12)Cc1cccc2ccccc12)*; ξNaproxenoyl = COc1ccc2cc(C(C)C(=O)*)ccc2c1; Acetyl(2-naphthyl) = O=C(Cc1ccc2ccccc2c1)*; X7 = O=C(CN1CCC(C(=O)*)CC1)c1ccc2ccccc2c1; 2Naphthoyl = O=C(c1ccc2ccccc2c1)*; NMeI = CC[C@H](C)[C@H](NC)C(=O)O; X1 = O=C(Cc1ccc(N[*:1])cc1)[*:2]; tBuAla = CC(C)(C)C[C@H](N)C(=O)O; Cha = N[C@@H](CC1CCCCC1)C(=O)O; Phg = N[C@H](C(=O)O)c1ccccc1; Tle = CC(C)(C)[C@H](N)C(=O)O; 4Abz = Nc1ccc(C(=O)O)cc1; Aib = CC(C)(N)C(=O)O; Inp = O=C(O)C1CCNCC1; Ava = NCCCCC(=O)O; GABA = NCCCC(=O)O; βAla = NCCC(=O)O; X3 = CCC(C)CN*

Target: T1, specific ANP receptor sites on BASM or BAE cells (Bos taurus, UniProt P10730)
T1 construct: specific receptor sites on BASM or BAE cells; endogenous in cells; host or cells: cultured BASM and BAE cells
T1 sequence (P10730 42-537): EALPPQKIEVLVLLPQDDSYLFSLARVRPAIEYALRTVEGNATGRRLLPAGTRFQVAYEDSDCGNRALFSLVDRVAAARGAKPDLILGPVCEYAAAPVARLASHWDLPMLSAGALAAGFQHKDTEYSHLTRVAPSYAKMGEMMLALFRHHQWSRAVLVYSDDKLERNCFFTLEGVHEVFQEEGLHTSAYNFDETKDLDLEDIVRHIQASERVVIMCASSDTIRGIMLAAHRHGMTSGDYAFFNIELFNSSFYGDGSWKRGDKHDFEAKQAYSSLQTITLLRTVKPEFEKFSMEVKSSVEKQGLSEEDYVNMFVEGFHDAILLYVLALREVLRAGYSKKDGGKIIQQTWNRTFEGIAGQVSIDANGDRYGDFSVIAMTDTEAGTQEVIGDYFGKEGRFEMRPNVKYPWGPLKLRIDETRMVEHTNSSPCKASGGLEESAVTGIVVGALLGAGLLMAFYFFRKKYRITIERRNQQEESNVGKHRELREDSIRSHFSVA
Test: Competitive displacement receptor binding of (125I)-rANP(126-150) on cultured cells
Design: species or system bovine
Settings: for Ki(app): concentration of unlabeled peptide displacing 50% of maximal binding of 0.5 nM (125I)-rANP(126-150), BASM or BAE cells
From the text: Analogous "competitive displacement" receptor binding assays are considered commonplace in the art for examining specific ligand-receptor interactions.
Assuming these ANP analogs act at one or more ANP receptor sites, then increased receptor affinity should reflect increased biological potency.

Ki(app) | receptor binding / activity as judged by Ki, in words | Compound
50.5 nM |  | CC[C@H](C)[C@H](NC(=O)[C@H](CCCNC(=N)N)NC(=O)[C@H](CC(=O)O)NC(=O)[C@@H](NC(=O)[C@H](CCCNC(=N)N)NC(=O)CNC(=O)CNC(=O)Cc1ccc2ccccc2c1)[C@@H](C)CC)C(=O)NCCCCC(N)=O [AP526, (2-NA)--G--G--R--I--D--R--I--NH--(CH2)4 --CONH2] ({Acetyl(2-naphthyl)}-GGRIDRI[Ava]-NH2)
50.5 nM |  | CCNC(=O)CNC(=O)[C@@H](NC(=O)[C@H](CCCNC(=N)N)NC(=O)[C@H](CC(=O)O)NC(=O)[C@@H](NC(=O)[C@H](CCCNC(=N)N)NC(=O)CCCCNC(=O)Cc1ccc2ccccc2c1)[C@@H](C)CC)[C@@H](C)CC [AP530, (2-NA)--NH(CH2)4 CO--R--I--D--R--I--G--NH--(ethyl)] ({Acetyl(2-naphthyl)-Ava}-RIDRIG-NHEt)
14.0 nM |  | CC[C@H](C)[C@H](NC(=O)[C@H](CCCNC(=N)N)NC(=O)CNC(=O)CNC(=O)Cc1ccc2ccccc2c1)C(=O)N[C@@H](CC(=O)O)C(=O)N[C@@H](CCCNC(=N)N)C(=O)N[C@@H](C(N)=O)C(C)C [AP535, (2-NA)--G--G--R--I--D--R--V^ --NH2)] ({Acetyl(2-naphthyl)}-GGRIDR[dV]-NH2)
106.4 nM |  | CC[C@H](C)[C@H](NC(=O)[C@H](CCCNC(=N)N)NC(=O)CNC(=O)CNC(=O)Cc1ccc2ccccc2c1)C(=O)N[C@@H](CC(=O)O)C(=O)N[C@@H](CCCNC(=N)N)C(=O)N[C@H](CC(C)C)C(N)=O [AP536, (2-NA)--G--G--R--I--D--R--L^ --NH2)] ({Acetyl(2-naphthyl)}-GGRIDR[dL]-NH2)
> 160 nM |  | CC[C@H](C)[C@H](NC(=O)[C@H](CCCNC(=N)N)NC(=O)CNC(=O)CNC(=O)Cc1ccc2ccccc2c1)C(=O)N[C@@H](CC(=O)O)C(=O)N[C@@H](CCCNC(=N)N)C(=O)N[C@H](Cc1ccccc1)C(N)=O [AP537, (2-NA)--G--G--R--I--D--R--F^ --NH2)] ({Acetyl(2-naphthyl)}-GGRIDR[dF]-NH2)
9.9 nM |  | CC[C@H](C)[C@H](NC(=O)[C@H](CCCNC(=N)N)NC(=O)[C@H](CC(=O)O)NC(=O)[C@@H](NC(=O)[C@H](CCCNC(=N)N)NC(=O)C1CCN(C(=O)Cc2ccc3ccccc3c2)CC1)[C@@H](C)CC)C(N)=O [AP538] ({Acetyl(2-naphthyl)-Inp}-RIDRI-NH2)
68.8 nM |  | CC[C@H](C)[C@H](NC(=O)[C@H](CCCNC(=N)N)NC(=O)[C@H](CC(=O)O)NC(=O)[C@@H](NC(=O)[C@H](CCCNC(=N)N)NC(=O)c1ccc(NC(=O)Cc2ccc3ccccc3c2)cc1)[C@@H](C)CC)C(N)=O [AP560] ({Acetyl(2-naphthyl)-4Abz}-RIDRI-NH2)
22.4 nM |  | CC[C@H](C)[C@H](NC(=O)[C@H](CCCNC(=N)N)NC(=O)[C@H](CC(=O)O)NC(=O)[C@@H](NC(=O)[C@H](CCCNC(=N)N)NC(=O)C1CCN(C(=O)c2ccc3ccccc3c2)CC1)[C@@H](C)CC)C(N)=O [AP562] ({2Naphthoyl-Inp}-RIDRI-NH2)
10.1 nM |  | CC[C@H](C)[C@H](NC(=O)[C@H](CCCNC(=N)N)NC(=O)[C@H](CC(=O)O)NC(=O)[C@@H](NC(=O)[C@H](CCCNC(=N)N)NC(=O)Cc1ccc(NC(=O)Cc2ccc3ccccc3c2)cc1)[C@@H](C)CC)C(N)=O [AP564] ({Acetyl(2-naphthyl)}-[X1]RIDRI-NH2)
26.5 nM |  | CC[C@H](C)[C@H](NC(=O)[C@H](CCCNC(=N)N)NC(=O)[C@H](CC(=O)O)NC(=O)[C@@H](NC(=O)[C@H](CCCNC(=N)N)NC(=O)C1CCN(CC(=O)c2ccc3ccccc3c2)CC1)[C@@H](C)CC)C(N)=O [AP574] (X7-RIDRI-NH2)
194.0 nM | very low, if any, activity | CC[C@H](C)[C@H](NC(=O)[C@H](CCCNC(=N)N)NC(=O)[C@H](CC(=O)O)NC(=O)[C@@H](NC(=O)[C@H](CCCNC(=N)N)NC(=O)CNC(=O)CNC(=O)Cc1ccc2ccccc2c1)c1ccccc1)C(N)=O [AP575, (2-NA)--G--G--R--Phg--D--R--I--NH2] ({Acetyl(2-naphthyl)}-GGR[Phg]DRI-NH2)
12.0 nM |  | CC[C@H](C)[C@H](NC(=O)[C@H](CCCNC(=N)N)NC(=O)[C@H](CC(=O)O)NC(=O)[C@H](CC(C)(C)C)NC(=O)[C@H](CCCNC(=N)N)NC(=O)CNC(=O)CNC(=O)Cc1ccc2ccccc2c1)C(N)=O [AP590, (2-NA)--G--G--R--tBuA--D--R--I--NH2] ({Acetyl(2-naphthyl)}-GGR[tBuAla]DRI-NH2)
14.0 nM |  | CC[C@H](C)[C@H](NC(=O)[C@H](CCCNC(=N)N)NC(=O)[C@H](CC(=O)O)NC(=O)[C@@H](NC(=O)[C@H](CCCNC(=N)N)NC(=O)CNC(=O)CNC(=O)Cc1ccc2ccccc2c1)C(C)(C)C)C(N)=O [AP591, (2-NA)--G--G--R--tBuG--D--R--I--NH2] ({Acetyl(2-naphthyl)}-GGR[Tle]DRI-NH2)

The remaining lines, values behind:

Compound | Ki(app) | receptor binding / activity as judged by Ki, in words
CC[C@H](C)[C@H](NC(=O)[C@H](CCCNC(=N)N)NC(=O)[C@H](CC(=O)O)NC(=O)[C@@H](NC(=O)[C@H](CCCNC(=N)N)NC(=O)CNC(=O)CNC(=O)Cc1ccc2ccccc2c1)[C@@H](C)CC)C(=O)NCC(=O)NC(C)(C)C(N)=O [AP525, (2-NA)--G--G--R--I--D--R--I--G--(Aib)--NH2] ({Acetyl(2-naphthyl)}-GGRIDRIG[Aib]-NH2) | 22.75 nM | 
CC[C@H](C)[C@H](NC(=O)[C@H](CCCNC(=N)N)NC(=O)[C@H](CC(=O)O)NC(=O)[C@H](CC1CCCCC1)NC(=O)[C@H](CCCNC(=N)N)NC(=O)CNC(=O)CNC(=O)Cc1ccc2ccccc2c1)C(N)=O [AP527, (2-NA)--G--G--R--Cha--D--R--I--NH2] ({Acetyl(2-naphthyl)}-GGR[Cha]DRI-NH2) | 22.5 nM | 
CC[C@H](C)[C@H](NC(=O)[C@H](CCCNC(=N)N)NC(=O)[C@H](CC(=O)O)NC(=O)[C@@H](NC(=O)[C@H](CCCNC(=N)N)NC(=O)CNC(=O)CNC(=O)C(C)c1ccc2cc(OC)ccc2c1)[C@@H](C)CC)C(=O)NCC(=O)N[C@@H](C)C(N)=O (stereo partly drawn) [AP528, 2(2'-(6'-MeONAP))--G--G--R--I--D--R--I--G--A--NH2] (ξNaproxenoyl-GGRIDRIGA-NH2) | 22.5 nM | 
CCNC(=O)CNC(=O)[C@H]([C@@H](C)CC)N(C)C(=O)[C@H](CCCNC(=N)N)NC(=O)[C@H](CC(=O)O)NC(=O)[C@@H](NC(=O)[C@H](CCCNC(=N)N)NC(=O)CNC(=O)CNC(=O)Cc1ccc2ccccc2c1)[C@@H](C)CC [AP529] ({Acetyl(2-naphthyl)}-GGRIDR[NMeI]G-NHEt) | 87.3 nM | 
CC[C@H](C)[C@H](NC(=O)[C@H](CCCNC(=N)N)NC(=O)[C@H](CC(=O)O)NC(=O)[C@@H](NC(=O)[C@H](CCCNC(=N)N)NC(=O)CNC(=O)CCCc1c[nH]c2ccccc12)[C@@H](C)CC)C(=O)NCC(=O)N[C@@H](C)C(N)=O [AP531, (3-IB)--G--R--I--D--R--I--G--A--NH2)] ({Butyryl(4-indol-3-yl)}-GRIDRIGA-NH2) | 9.34 nM | 
CC[C@H](C)[C@H](NC(=O)[C@H](CCCNC(=N)N)NC(=O)[C@H](CC(=O)O)NC(=O)[C@@H](NC(=O)[C@H](CCCNC(=N)N)NC(=O)CCNC(=O)CCCc1c[nH]c2ccccc12)[C@@H](C)CC)C(=O)NCC(=O)N[C@@H](C)C(N)=O [AP532, (3-IB)--beta--Ala--R--I--D--R--I--G--A--NH2)] ({Butyryl(4-indol-3-yl)-βAla}-RIDRIGA-NH2) | 11.95 nM | 
CC[C@H](C)[C@H](NC(=O)[C@H](CCCNC(=N)N)NC(=O)[C@H](CC(=O)O)NC(=O)[C@@H](NC(=O)[C@H](CCCNC(=N)N)NC(=O)CNC(=O)CNC(=O)C(Cc1cccc2ccccc12)Cc1cccc2ccccc12)[C@@H](C)CC)C(=O)NCC(=O)N[C@@H](C)C(N)=O [AP533] (X5-GGRIDRIGA-NH2) | 52.0 nM | 
CC[C@H](C)[C@H](NC(=O)[C@H](CCCNC(=N)N)NC(=O)[C@H](CC(=O)O)NC(=O)[C@@H](NC(=O)[C@H](CCCNC(=N)N)NC(=O)CNC(=O)CNC(=O)C(Cc1ccccc1)Cc1ccccc1)[C@@H](C)CC)C(=O)NCC(=O)N[C@@H](C)C(N)=O [AP534, (DBA)--G--G--R-- I--D--R--I--G--A--NH2)] (Dibenzylacetyl-GGRIDRIGA-NH2) | 8.81 nM | 
CC[C@H](C)[C@H](NC(=O)[C@H](CCCNC(=N)N)NC(=O)[C@H](CC(=O)O)NC(=O)[C@@H](NC(=O)[C@H](CCCNC(=N)N)NC(=O)C1CCN(C(=O)COc2ccc3ccccc3c2)CC1)[C@@H](C)CC)C(N)=O [AP539] ({Acetyl(2-naphthyloxy)-Inp}-RIDRI-NH2) | 9.1 nM | 
CCC(C)CNC(=O)[C@H](CCCNC(=N)N)NC(=O)[C@H](CC(=O)O)NC(=O)[C@@H](NC(=O)[C@H](CCCNC(=N)N)NC(=O)C1CCN(C(=O)Cc2ccc3ccccc3c2)CC1)[C@@H](C)CC (stereo partly shown) [AP557] ({Acetyl(2-naphthyl)-Inp}-RIDR-X3) | 41.7 nM | 
CC[C@H](C)[C@H](NC(=O)[C@H](CCCNC(=N)N)NC(=O)[C@H](CC(=O)O)NC(=O)[C@@H](NC(=O)[C@H](CCCNC(=N)N)NC(=O)CCCNC(=O)COc1ccc2ccccc2c1)[C@@H](C)CC)C(=O)NCC(=O)N[C@@H](C)C(N)=O [AP576, (2-NOA)--NH(CH2)3 CO--R--I--D--R--I--G--A--NH2] ({Acetyl(2-naphthyloxy)-GABA}-RIDRIGA-NH2) | 16.0 nM | 
